PMC12024234, “Antioxidant, Anti-Inflammatory, and Oral Bioavailability of Novel Sulfonamide Derivatives of Gallic Acid” (Antioxidants, 2025)

Legend:
[1] = Ferric reducing antioxidant power (FRAP) assay; conditions: compared to GA
Protocol: The FRAP assay was conducted following an adapted procedure based on the method described by Benzie (1996). The FRAP reagent was prepared fresh and warmed to 25 °C before use. The reagent was made by combining 2.5 mL of a 10 mM TPTZ solution in 40 mM hydrochloric acid, 2.5 mL of a 20 mM FeCl3·6H2O solution, and 25 mL of a 0.3 M sodium acetate buffer adjusted to pH 3.6. For the assay, 100 μL of each sample was mixed with 3 mL of the freshly prepared FRAP reagent and incubated for 4 min. After incubation, the absorbance was recorded at 593 nm using a UV-VIS spectrophotometer, with methanol serving as the blank. A standard calibration curve was generated using ascorbic acid solutions at concentrations of 100, 200, 400, 800, and 1000 μM (R^2 = 0.998). The FRAP values were calculated as μM of ascorbic acid equivalents based on the standard curve. The results presented are the mean of three independent experiments.

[2] = test system: intracellular reactive oxygen species (ROS) levels in HIEC-6 cells; test: DCFDA / H2DCFDA ROS assay in HIEC-6; assay type: cell-based, Human; conditions: HIEC-6, 0.2–50 µM
Protocol: The antioxidant DCFDA assay was conducted in HIEC-6 according to the protocol provided by the manufacturer Abcam (ab11385) and as mentioned by. Cells were seeded at a cell density of 2.5 × 10^4 cells/well in a clear bottom black 96-well microplate and allowed to adhere overnight at 37 °C in a CO2 incubator. Cells were washed and incubated in 100 µL of the diluted staining DCFDA solution, prepared by diluting 20 mM DCFDA in PBS, for 45 min at 37 °C in the dark Then, the DCFDA solution was removed and GA, 3,4,5-THBS, or 3,4,5-TMBS was added to the cells at different concentrations, in addition to doxorubicin, used as a positive control. Unstained cells were designated as blank. Fluorescence was recorded at Ex/Em = 485/535 nm.
The antioxidant activity of GA, 3,4,5-THBS, and 3,4,5-TMBS was assessed in HIEC-6 cells using the fluorescent probe 2′,7′-dichlorodihydrofluorescein diacetate (H2DCFDA). This assay quantifies the oxidation of H2DCFDA to 2′,7′-dichlorofluorescein (DCF), which serves as a marker for intracellular reactive oxygen species (ROS) levels. Cells were exposed to compound concentrations ranging from 0.2 to 50 µM, and the resulting fluorescence intensities were compared to a control group treated with H2DCFDA alone.

[3] = Oral bioavailability / pharmacokinetics in rats; assay type: in vivo, Sprague Dawley rats; conditions: for Cmax / AUC(0-inf) / AUC(0-t) / CL/F / half-life / MRT inf / Tmax: male, Sprague Dawley; for Cmax / AUC(0-inf) / AUC(0-t) / CL/F / half-life / MRT inf / Tmax / Vz: rat serum; for Cmax: 100 mg/kg (table: 100 mg dose); for AUC(0-inf) / AUC(0-t) / CL/F / half-life / MRT inf / Tmax / Vz / Distribution volume at the terminal phase (Vz) relative to GA: 100 mg/kg; for MRT inf: n = 6, read-out: MRT0–∞; for Tmax / Distribution volume at the terminal phase (Vz) relative to GA: rat; for Tmax: serum, po
Protocol: Male Sprague Dawley rats, aged 7–9 weeks and weighing 220 ± 20 g on average, were used for bioavailability studies. The animals were housed in the Laboratory Animal Research Unit at the University of Petra Pharmaceutical Center under controlled conditions: a temperature of 23 ± 2 °C, humidity of 55–65%, and a 12 h light/dark cycle. Prior to the experiments, the rats underwent a 10-day acclimatization period with free access to standard food and water. All procedures complied with the University of Petra’s animal use guidelines, which adhere to the standards of the Federation of European Laboratory Animal Sciences Association (FELASA). The rats were divided into three groups (n = 6 per group) and administered suspensions of GA, 3,4,5-TMBS, or 3,4,5-THBS prepared in 5% carboxymethylcellulose. Each compound was administered orally at a dose of 100 mg/kg, based on previous studies. Blood samples were collected from the retro-orbital plexus at 0.5, 1, 2, 3, 4, 6, 10, and 24 h post-administration. The samples were centrifuged at 5000 rpm for 10 min, and the serum was mixed with acetonitrile in a 1:3 ratio. After a second centrifugation at 5000 rpm for 15 min, the supernatant was collected for high-performance liquid chromatography (HPLC) analysis. HPLC analysis was conducted using a Shimadzu Class VP series system equipped with an LC-10AT VP pump, an SIL-10AD VP autosampler, and an SCL-10AVP system (Shimadzu, Kyoto, Japan). A C18 column (25 cm × 4.6 mm, 5 μm) was used, with a photodiode array detector set to a wavelength range of 200–400 nm. The mobile phase for TMBS and THBS consisted of a 50:50 (v/v) mixture of deionized water and acetonitrile containing 0.1% trifluoroacetic acid, flowing at 1 mL/min. For GA, the mobile phase was a 70:30 mixture of methanol and a water/sulfuric acid solution (100:2), also at a flow rate of 1 mL/min. The retention times for THBS and TMBS were 2.39 and 3.47 min, respectively, while GA eluted at 2.4 min, all detected at 254 nm. Results were analyzed using Lab Solution Software LC (version 5.3) and represent the average of three measurements.

[4] = DPPH assay on supernatant after CYP2D6 metabolism
Protocol: The antioxidant properties of the compounds under study were examined using the 2,2-Diphenyl-1-picrylhydrazyl (DPPH) assay, following a well-established protocol. A DPPH solution was prepared at a concentration of 0.1 mM in methanol. […] To ensure proper reaction, the mixtures were kept in the dark and incubated at room temperature for 30 min. After incubation, the absorbance of each sample was measured at 517 nm using a UV-VIS spectrophotometer. Gallic acid was used as the reference standard, and methanol served as the blank control.
To further assess the scavenging activity of 3,4,5-TMBS metabolites, an antioxidant assay was conducted after 3 and 4 h following the metabolism. After both 3 h and 4 h reaction periods, the enzyme was separated, and the resulting supernatant was utilized for the DPPH assay. Findings regarding the antioxidant activity of 3,4,5-TMBS, post-metabolism, at these time points, in comparison to GA and 3,4,5-THBS at the same concentration, are illustrated in Figure 9.

[5] = biological target: T1, CYP2D6 (Homo sapiens, UniProt P10635); test: Metabolism by cytochrome P450 2D6 (CypExpress), HPLC; assay type: in vitro ADME; conditions: 4 h
T1 construct: purchased Sigma Aldrich C4982
Protocol: The enzymatic activity of cytochrome P450 2D6 (CYP2D6) was evaluated following the CypExpress protocol (C4982, Sigma Aldrich, Darmstadt, Germany). The reaction buffer consisted of 5 mM glucose-6-phosphate (G6P), 2 mM nicotinamide adenine dinucleotide phosphate (NADP+), and 3,4,5-TMBS prepared in PBS at concentrations of 1000 and 1500 µM. Diltiazem was used as a positive control. The reaction was initiated by adding CYP2D6, and the mixture was vortexed for 5 min. The samples were then incubated at 37 °C with gentle shaking at 100 rpm for 4 h. The reaction was terminated by adding acetonitrile, followed by centrifugation at 800 rpm for 10 min. The supernatant was collected and analyzed using HPLC.

T1 sequence (P10635 whole entry): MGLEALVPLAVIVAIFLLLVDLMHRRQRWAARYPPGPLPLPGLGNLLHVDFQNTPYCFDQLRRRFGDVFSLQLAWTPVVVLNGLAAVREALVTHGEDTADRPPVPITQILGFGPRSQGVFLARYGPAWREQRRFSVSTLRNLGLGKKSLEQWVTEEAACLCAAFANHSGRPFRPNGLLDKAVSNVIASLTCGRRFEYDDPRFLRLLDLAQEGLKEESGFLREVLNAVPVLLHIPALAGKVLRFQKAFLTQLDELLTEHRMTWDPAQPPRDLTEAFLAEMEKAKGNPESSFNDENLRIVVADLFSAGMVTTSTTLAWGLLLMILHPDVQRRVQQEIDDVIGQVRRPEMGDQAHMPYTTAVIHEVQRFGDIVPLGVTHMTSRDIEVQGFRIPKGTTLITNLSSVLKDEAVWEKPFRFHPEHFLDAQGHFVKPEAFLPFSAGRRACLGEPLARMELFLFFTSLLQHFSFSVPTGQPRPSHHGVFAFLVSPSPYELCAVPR

In the case of `NS(=O)(=O)c1cc(O)c(O)c(O)c1` [3,4,5-THBS, 3,4,5-trihydroxybenzenesulfonamide], the “FRAP value (antioxidant capacity)” value [1] is reported as “lower antioxidant activity compared to GA”, the “ROS levels (fluorescence intensity) relative to control” value [2] is reported as “potent antioxidant activity” and the Cmax ([3]; n = 6) is reported as 9560 ± 1900 ng/mL. The AUC(0-inf) ([3]; n = 6) was 24200 ± 7370 ng·h/mL, the AUC(0-t) ([3]; n = 6) was 24200 ± 270 ng·h/mL and the CL/F ([3]; n = 6) was 73.2 mL/min/kg. It also gave a half-life ([3]; n = 6) of 2.1 ± 1.3 h, an MRT inf [3] of 2.69 ± 0.36 h and a Tmax [3] of 2 h. The Tmax ([3]; n = 6) was 2 ± 0.1 h, the Vz ([3]; n = 6) was 7.39 ± 2.16 (mg)/(μg/mL) and the “Distribution volume at the terminal phase (Vz) relative to GA” value [3] was “approximately ten-fold lower than that of GA”.
With `COc1cc(S(N)(=O)=O)cc(OC)c1OC` [3,4,5-TMBS, 3,4,5-trimethoxybenzenesulfonamide] the “FRAP value (antioxidant capacity)” value [1] was “lower antioxidant activity compared to GA”, the “DPPH scavenging activity after CYP2D6 metabolism” value (shortened to “DPPH scavenging activity”) ([4]; 1000 µM, after four hours) was 45% and the “DPPH scavenging activity” value ([4]; 1000 µM, after three hours) was 35%. For the same compound, the “DPPH scavenging activity” value ([4]; 2000 µM, after three and four hours) was “up to 61%”, the Metabolism by CYP2D6 (concentration) ([5]; 1000 µM) was 833 ± 54.9 µM and the Metabolism by CYP2D6 (concentration) ([5]; 1500 µM) was 1248 ± 5.02 µM. The “ROS levels (fluorescence intensity) relative to control” value [2] was “potent antioxidant activity”, the Cmax ([3]; n = 6) was 25800 ± 6030 ng/mL and the AUC(0-inf) ([3]; n = 6) was 386000 ± 43800 ng·h/mL. It also gave an AUC(0-t) ([3]; n = 6) of 173000 ± 49300 ng·h/mL, a CL/F ([3]; n = 6) of 6.17 mL/min/kg and a half-life ([3]; n = 6) of 7.17 ± 1.62 h. It also gave an MRT inf [3] of 11.9 ± 0.61 h, a Tmax [3] of 2.87 h and a Tmax ([3]; n = 6) of 2.88 ± 1.31 h. For the same compound, the Vz ([3]; n = 6) was 3.20 ± 0.55 (mg)/(μg/mL) and the “Distribution volume at the terminal phase (Vz) relative to GA” value [3] was “approximately ten-fold lower than that of GA”.
